Experimental data published in patent US20100041089A1, “IMPROVED METHOD FOR DETECTING CHEMICAL […]” (priority 2006, published 2010).

System: yeast genes (expressed mRNA)
Assay: DNA chip measurement of expressed mRNA of yeast genes after culture with a toxic chemical substance
Assay type: cell-based, Saccharomyces cerevisiae S288C
Protocol: Yeast (Saccharomyces cerevisiae S288C (a SUC2mal mel gap2 CUP1)) were cultured at 25° C. on YPD medium (yeast extract 1%, polypeptone 2%, glucose 2%). One of toxic chemical substances was added to the cell at logarithmic growth phase, and the cell was further cultured for two hours. Cell was cultured without any chemical substance in the same condition, and was used as a control. Concentrations of the chemical substances were defined to inhibit the growth of the yeast but not lead to death.
After the completion of cultivation, the culture was centrifuged to collect the cells. To the cells, sodium acetate buffer (50 mM sodium acetate, 10 mM EDTA, 1% SDS) was added, and the mixture was shaken at 65° C. for five minutes, followed by returning to room temperature, and obtaining the supernatant, which procedure was repeated two times. To the supernatant, ½ amount of a solution of phenol/chloroform (1:1) was added, and the mixture was centrifuged to give a supernatant, an equal amount of chloroform was added, and the mixture was centrifuged to give a supernatant. To the supernatant, an equal amount of isopropanol containing 0.3 M sodium acetate was added, and the mixture was allowed to stand at room temperature for 30 minutes, after which the mixture was centrifuged to give sediment of the whole RNAs. Seventy % ethanol was added to the sediment, and the mixture was again centrifuged to give sediment, which was then dried and dissolved in water. mRNA was isolated from the whole RNAs as followings. In view of the fact that a poly A chain is attached to the 3′ terminus of mRNA, a polynucleotide having a poly T structure which was immobilized on the surface of latex beads was used to trap the mRNA, and then the mRNA was washed and eluted with spine column (Oligotex-dT30<Super>mRNA Purification Kit, Takara). Reverse transcription of the mRNA was conducted with a reverse transcriptase (Super Script II Reverse Transcriptase; catalogue No. 18064-014, GibcoBRL) using fluorescence-labeled nucleotides to give cDNAs that were introduced with Cy3-dUTP or Cy5-dUTP during the reverse transcription.
The labeled cDNAs were dissolved in TE buffer (10 mM Tris-HCl/1 mM EDTA, pH 8.0), and the solution was dropped on the DNA chip containing the whole genes of yeast (DNA Chip Research Inc. Japan) so that the cDNAs were hybridized on the DNA chip at 65° C. for over 12 hours. The fluoresces intensity of the DNA chip was read with a scanner, and the ratio relative to the fluorescence intensity resulting from the absence of chemical substance was estimated as the following, which is shown in Tables 1 to 9.
In the Tables, “Intensity” indicated in the rightmost column is a value of the level of expressed mRNA of each gene in control cells as divided by the average level of the expressions of the whole genes. A gene of which mRNA level is lower in control, and is higher in cases of addition of chemical substance, is especially useful in the detection of toxic substances.
Here, when a ratio of an amount of mRNA expressed in the presence of the chemical substance to an amount of mRNA expressed in the absence of the chemical substance is two or more, then it is considered significant.

S=C([S-])NCCNC(=S)[S-].[Zn+2] [(11), Zinc N,N′-ethylenebis(dithiocarbamate)]
The level of expressed mRNA in the presence of chemical substance/The level of expressed mRNA in the absence of chemical substance (yeast gene YNL115C, cultured two hours with substance): 1.1
The level of expressed mRNA in the presence of chemical substance/The level of expressed mRNA in the absence of chemical substance (yeast gene YNL134C, cultured two hours with substance): 5.0
The level of expressed mRNA in the presence of chemical substance/The level of expressed mRNA in the absence of chemical substance (yeast gene YNL156C, cultured two hours with substance): 1.4
The level of expressed mRNA in the presence of chemical substance/The level of expressed mRNA in the absence of chemical substance (yeast gene YNL190W, cultured two hours with substance): 1.0
level of expressed mRNA in the presence of chemical substance / level in the absence of chemical substance (yeast gene YNL194C, cultured two hours with the chemical substance): 17.1
The level of expressed mRNA in the presence of chemical substance/The level of expressed mRNA in the absence of chemical substance (yeast gene YNL195C, cultured two hours with the chemical substance): 2.9
The level of expressed mRNA in the presence of chemical substance/The level of expressed mRNA in the absence of chemical substance (yeast gene YNL208W, cultured two hours with substance): 2.5
The level of expressed mRNA in the presence of chemical substance/The level of expressed mRNA in the absence of chemical substance (yeast gene YNL234W, cultured two hours with substance): 1.3
The level of expressed mRNA in the presence of chemical substance/The level of expressed mRNA in the absence of chemical substance (yeast gene YNL241C, cultured for two hours with substance): 3.0
The level of expressed mRNA in the presence of chemical substance/The level of expressed mRNA in the absence of chemical substance (yeast gene YNL281W, cultured two hours with substance): 1.6
The level of expressed mRNA in the presence of chemical substance/The level of expressed mRNA in the absence of chemical substance (yeast gene YNL300W, cultured two hours with substance): 0.9
The level of expressed mRNA in the presence of chemical substance/The level of expressed mRNA in the absence of chemical substance (yeast gene YNL305C, cultured two hours with substance): 1.8
The level of expressed mRNA in the presence of chemical substance/The level of expressed mRNA in the absence of chemical substance (yeast gene YNR064C, cultured two hours with substance): 0.7
The level of expressed mRNA in the presence of chemical substance/The level of expressed mRNA in the absence of chemical substance (yeast gene YNR068C, cultured two hours with substance): 1.1
The level of expressed mRNA in the presence of chemical substance/The level of expressed mRNA in the absence of chemical substance (yeast gene YOL032W, cultured two hours with substance): 1.4
The level of expressed mRNA in the presence of chemical substance/The level of expressed mRNA in the absence of chemical substance (yeast gene YOL036W, cultured two hours with substance): 2.2
The level of expressed mRNA in the presence of chemical substance/The level of expressed mRNA in the absence of chemical substance (yeast gene YOL047C, cultured two hours with substance): 0.9
The level of expressed mRNA in the presence of chemical substance/The level of expressed mRNA in the absence of chemical substance (yeast gene YOL071W, cultured two hours with substance): 4.3
The level of expressed mRNA in the presence of chemical substance/The level of expressed mRNA in the absence of chemical substance (yeast gene YOL082W, cultured two hours with substance): 1.6
The level of expressed mRNA in the presence of chemical substance/The level of expressed mRNA in the absence of chemical substance (yeast gene YOL083W, cultured two hours with substance): 1.3
The level of expressed mRNA in the presence of chemical substance/The level of expressed mRNA in the absence of chemical substance (yeast gene YOL117W, cultured two hours with substance): 1.0
The level of expressed mRNA in the presence of chemical substance/The level of expressed mRNA in the absence of chemical substance (yeast gene YOL131W, cultured two hours with substance): 1.4
The level of expressed mRNA in the presence of chemical substance/The level of expressed mRNA in the absence of chemical substance (yeast gene YOL150C, cultured two hours with substance): 9.4
The level of expressed mRNA in the presence of chemical substance/The level of expressed mRNA in the absence of chemical substance (yeast gene YOL152W): 5.9
The level of expressed mRNA in the presence of chemical substance/The level of expressed mRNA in the absence of chemical substance (yeast gene YOL162W, cultured two hours with substance): 4.3
The level of expressed mRNA in the presence of chemical substance/The level of expressed mRNA in the absence of chemical substance (yeast gene YOR019W, cultured two hours with substance): 1.7
The level of expressed mRNA in the presence of chemical substance/The level of expressed mRNA in the absence of chemical substance (yeast gene YOR178C, cultured two hours with the chemical substance): 4.1
The level of expressed mRNA in the presence of chemical substance/The level of expressed mRNA in the absence of chemical substance (yeast gene YOR197W, cultured two hours with substance): 1.0
The level of expressed mRNA in the presence of chemical substance/The level of expressed mRNA in the absence of chemical substance (yeast gene YOR215C, cultured two hours with substance): 1.6
The level of expressed mRNA in the presence of chemical substance/The level of expressed mRNA in the absence of chemical substance (yeast gene YOR225W, cultured two hours with substance): 1.2
The level of expressed mRNA in the presence of chemical substance/The level of expressed mRNA in the absence of chemical substance (yeast gene YOR248W, cultured two hours with substance): 2.3
The level of expressed mRNA in the presence of chemical substance/The level of expressed mRNA in the absence of chemical substance (yeast gene YOR382W, cultured two hours with substance): 2.5
The level of expressed mRNA in the presence of chemical substance/The level of expressed mRNA in the absence of chemical substance (yeast gene YPL052W, cultured two hours with substance): 1.2
The level of expressed mRNA in the presence of chemical substance/The level of expressed mRNA in the absence of chemical substance (yeast gene YPL087W, cultured two hours with substance): 2.5
The level of expressed mRNA in the presence of chemical substance/The level of expressed mRNA in the absence of chemical substance (yeast gene YPL171C, cultured for two hours with substance): 37.0
The level of expressed mRNA in the presence of chemical substance/The level of expressed mRNA in the absence of chemical substance (yeast gene YPL196W, cultured two hours with substance): 1.7
The level of expressed mRNA in the presence of chemical substance/The level of expressed mRNA in the absence of chemical substance (yeast gene YPL206C, cultured two hours with substance): 1.5
The level of expressed mRNA in the presence of chemical substance/The level of expressed mRNA in the absence of chemical substance (yeast gene YPL222W, cultured two hours with substance): 1.2
The level of expressed mRNA in the presence of chemical substance/The level of expressed mRNA in the absence of chemical substance (yeast gene YPR023C, cultured two hours with substance): 1.7
The level of expressed mRNA in the presence of chemical substance/The level of expressed mRNA in the absence of chemical substance (yeast gene YPR079W, cultured two hours with substance): 0.8
The level of expressed mRNA in the presence of chemical substance/The level of expressed mRNA in the absence of chemical substance (yeast gene YPR151C, cultured two hours with substance): 1.4
